From patent publication US20230346743A1, “COMBINATION CANCER THERAPIES” (The Board of Regents of the University of Oklahoma, priority 2018, published 2023) come the findings set out here.

In assay [1] the test system is p21. The experiment in a line: Western blots of p21 in ovarian cancer cell lines. It is filed as cell-based, human. Particulars: A2780, SKOV3, SKOV3 R273H, SKOV3 R248W. As for the experimental part: Proteins were extracted from cell cultures using M-PER mammalian protein extraction reagent (ThermoFisher, Waltham, MA, USA) and volumes corresponding to 30 µg determined with BCA reagent (ThermoFisher, Waltham, MA, USA) were electrophoresed into a SDS-PAGE gel and transferred to PVDF membranes. Membranes were blocked (5% dry skim milk powder in TBST buffer) for at least 1 h or overnight, washed thrice with TBST and then incubated with primary antibody: p53 DO-1, β-actin, histone H3, GAPDH (Santa Cruz Biotechnology, Dallas, TX, USA) and mortalin, Tom20, V5 tag antibodies, p21, PARP, SLC7A11, caspase 3 (Cell Signaling Technology, Danvers, MA, USA) for at least 1 h or overnight. After three washes, membranes were incubated with anti-mouse HRP conjugated (Santa Cruz Biotechnology, Dallas, TX, USA) or anti-Rabbit HRP conjugated (Cell Signaling Technology, Danvers, MA, USA) for 40 min. Membranes then were washed and developed with ECL reagents (BioRad, Hercules, CA, USA). Bands were imaged and quantified (ChemiDoc imaging system with Image Lab Software/BioRad).

The subject of assay [2] is MESOV human ovarian cancer cells. The experiment in a line: Tumor establishment after intraperitoneal injection of MESOV cells (secondary chemoprevention model). The assay is classed as in vivo. Particulars: nu/nu mice, MESOV i.p. The method, then:
Four-week-old female athymic nude mice (NCr-Foxn1^nu) were obtained from Taconic Biosciences under an approved Institutional Animal Care and Use Committee (IACUC) protocol. Mice were acclimatized for two weeks, fed with a standard diet and ear tagged during the acclimatization period. The timing to tumor development after intraperitoneal injection with various amounts of MESOV cells was determined in a pilot study prior. In the intervention experiment, 6-week-old mice were injected with 20 million MESOV human ovarian cancer cells in their intraperitoneal region. Drug treatment was initiated 4 weeks after the injection of cancer cells. Mice were randomized to four treatment groups before the start of treatment based on their body weight. There was no significant (one-way ANOVA, p >0.999) difference in body weight between groups at the start of treatment. Twelve mice were allocated to each group based on the power analysis performed while designing experiment. […] Controls were gavaged with Kolliphor HS15 (30% in water). […] (10 mg/kg) was dissolved in phosphate buffered saline and injected into the peritoneum of mice every other day. Initially SHetA2 dosing was administered every day for two weeks in SHetA2 alone and drug combination groups, and then switched to every other day for the next three weeks due to the stress caused to the mice by daily gavage. Oral gavaging was performed with sterile disposable plastic feeding tubes 20 ga × 38 mm (Instech Laboratories, Inc., Plymouth Meeting, PA, USA). Three mice in the drug combination group died after two weeks of drug treatment due to gavaging incidents. Body weights were recorded and animal health was monitored weekly. After the end of drug intervention period, all mice were euthanized by CO2 asphyxiation followed by exsanguination, their tumors and other vital organs were collected for further analysis. After measuring the total tumor weight, a portion of the tumors were snap frozen in liquid nitrogen and another portion was formalin fixed. The formalin fixed tissue samples were paraffin embedded, sectioned and stained with hematoxylin and eosins for histology studies. An experienced pathologist reviewed blinded histology slides for kidney and liver toxicity. Presence or absence of tumor at the end of the treatment period was used as the primary outcome measure. […] Two by two logistic regression was used to compare the four treatment groups (Untreated control, SHetA2, […] combination) in the study. Mice in the first 3 groups had complete data, while 3 mice in the combo group died early and had zero tumor weights. […]

Assay [3] concerns SiHa cervical cancer cell line xenograft. In words: SiHa xenograft tumor growth. The assay is classed as in vivo, mice. The settings on record: gavage 60 mg/kg SHetA2, 100 mg/kg palbociclib or the combination every other day. The text has this: FIG. 49. […] Controls were gavaged with the same Kolliphor HS15 used to suspend the drugs. Using a generalized estimating equations (GEE) model to analyze tumor growth treated as a continuous variable, there was a significant additive effect of SHetA2 (p<0.001) and palbociclib (p<0.001) on day 65 of treatment. This additive effect between SHetA2 (p=0.001) and palbociclib (p=0.051) was trending significant at day 63 of treatment. Additionally, SHetA2 starts to show significant tumor suppressing activity as early as day 63 of treatment (p=0.045).

In assay [4] the test system is FTSECs. In words: MTT cytotoxicity assay and Chou-Talalay drug interaction. The assay is classed as cell-based, human. The settings on record: hFTSECs. As for the experimental part: (§1) Cells plated at 2000 cells/well in 96 well microtiter plates were incubated for 36-48 h and treated with a range of doses and combinations of SHetA2 and PRIMA-1 or PRIMA-1^MET, or the same volume of DMSO solvent for 72 h of incubation. The percentage of growth for single drug treatments or fold effect (1 - ratio of treated/untreated growth) was measured using the CellTiter 96 AQueous Non-Radioactive Cell Proliferation Assay (Promega, Madison, WI, USA) and the BioTeK SYNERGY H1 (BioTeK, Winooski, VT, USA). Each experiment was performed in triplicate and repeated 2-3 times.
(§2) The potencies (IC50′s) of SHetA2 or PRIMA-1 were determined using GraphPad Prism 6 software analysis of average MTT Optical Density vs drug dose. […] Single drug treatments at doses surrounding the IC50 values were evaluated parallel. All treatments were performed in triplicate and averages used to draw isobolograms and calculate combination indices (CI) and dose-reduction indices (DRIs) using CompuSyn Software according to the Chou and Talalay method (op cit). All experiments were repeated at least twice for each cell line to confirm results.

For assay [5], the system named is A2780 (WT p53). The assay is described as above. It is filed as cell-based, human. As for the experimental part: as §1, §2

On to `CC1(C)CC(C)(C)c2cc(NC(=S)Nc3ccc([N+](=O)[O-])cc3)ccc2S1` [SHetA2], for which, in assay [1], the “p21 protein (Western blot)” value is given as “increased p21 protein in all cell lines evaluated regardless of p53 status”. For the same compound, in assay [2], the “OR for preventing tumor development (additive logistic regression model)” value is reported as 10.384. For the same compound, the Tumor-free rates in assay [2] (SHetA2 60 mg/kg gavage, PRIMA-1^MET 10 mg/kg i.p., treatment from day 28 for 38 days) is listed as 42%. For the same compound, in assay [3], the “SiHa xenograft tumor growth” value is on record as “significantly reduce SiHa cervical cancer cell line xenograft tumor growth”. Besides, the “SHetA2 sensitivity compared with ovarian cancer cell lines” value in assay [4] is “least sensitive”. Further, the IC50 in assay [5] (A2780 cells with shRNA knockdown of p53, MTT) came out at 4.8 µM; in assay [5] (A2780 cells without p53 knockdown (empty vector), MTT) it was 2.8 µM.
